Results taken from paper PMC11112591 (ACS Omega, 2024).

Legend:
[1] = Mouse liver microsome intrinsic clearance; type: in vitro ADME; settings: liver microsomes, pH 7.4
[2] = Parallel artificial membrane permeability assay; type: in vitro ADME; settings: PAMPA, PAMPA effective permeability, donor pH 6.5, acceptor pH 7.5, 5 h, 37 °C
[3] = biological target: CYP51 (Trypanosoma cruzi, UniProt Q7Z1V1); test: CYP51 inhibition of initial hits; type: biochemical; settings: initial hit data, Figure 1
Chain of CYP51 (Q7Z1V1 whole entry): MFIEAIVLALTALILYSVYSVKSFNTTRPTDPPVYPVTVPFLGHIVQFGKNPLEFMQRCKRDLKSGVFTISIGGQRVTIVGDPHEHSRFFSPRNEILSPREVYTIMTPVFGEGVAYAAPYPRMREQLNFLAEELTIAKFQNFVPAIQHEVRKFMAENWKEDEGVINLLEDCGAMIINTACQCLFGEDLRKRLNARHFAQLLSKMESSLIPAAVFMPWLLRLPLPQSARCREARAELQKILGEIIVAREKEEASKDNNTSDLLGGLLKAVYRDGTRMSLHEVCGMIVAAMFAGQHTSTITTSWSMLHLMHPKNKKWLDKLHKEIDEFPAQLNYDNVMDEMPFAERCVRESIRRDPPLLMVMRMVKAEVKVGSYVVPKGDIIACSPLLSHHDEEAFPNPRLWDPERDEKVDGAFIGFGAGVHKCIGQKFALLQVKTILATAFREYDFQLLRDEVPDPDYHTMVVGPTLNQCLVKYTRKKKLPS

| microsomal CLint at 0.5 µM [1] [µL/min/mg] | Papp at 5 h, 1 µM [2] [×10⁻⁶ cm/s] | CYP51 IC50 [3] | Compound |
| --- | --- | --- | --- |
| 3480 | 25.4 | no clear CYP51 inhibition | Cc1cc(C)c(C#N)c(SCC(=O)c2cccs2)n1 [Compound 1, c1(SCC(=O)c2cccs2)nc(C)cc(C)c1C#N] |
| 1320 | 23.3 | – | Cc1cc(C)c(C#N)c(SCC(=O)c2ccsc2)n1 [Compound 3, S(c1nc(C)cc(C)c1C#N)CC(=O)c2cscc2] |
| 8860 | 1 | – | CCc1ccc(C(=O)CSc2nc(C)cc(C)c2C#N)cc1 [Compound 5, S(c1nc(C)cc(C)c1C#N)CC(=O)c2ccc(CC)cc2] |
| 8880 | 4.3 | – | Cc1cc(C)c(C#N)c(SCC(=O)c2ccc(Cl)cc2)n1 [Compound 8, Cc1c(C#N)c(SCC(=O)c2ccc(Cl)cc2)nc(C)c1] |
| 35300 | 1.7 | – | Cc1cc(C)c(C#N)c(SCC(=O)c2ccc(Cl)cc2Cl)n1 [Compound 9, Clc1cc(ccc1C(CSc2c(C#N)c(C)cc(C)n2)=O)Cl] |
| 73.9 | 11.7 | – | Cc1cc(C)c(C#N)c(SCC(=O)N2CCOCC2)n1 [Compound 16, Cc1c(C#N)c(SCC(=O)N2CCOCC2)nc(C)c1] |

Second part, the molecule before the results:

| Compound | microsomal CLint at 0.5 µM [1] [µL/min/mg] | Papp at 5 h, 1 µM [2] [×10⁻⁶ cm/s] | CYP51 IC50 [3] |
| --- | --- | --- | --- |
| Cc1cc(C)c(C#N)c(SCC(=O)c2ccccc2)n1 [Compound 2, c1c(C)c(C#N)c(SCC(=O)c2ccccc2)nc1C] | 1560 | 20.4 | – |
| Cc1cc(C)c(C#N)c(SCC(=O)c2ccc(F)cc2)n1 [Compound 6, S(c1nc(C)cc(C)c1C#N)CC(=O)c2ccc(F)cc2] | – | 8 | – |
| Cc1cc(C)c(C#N)c(SCC(=O)c2ccc(F)cc2F)n1 [Compound 7, O=C(CSc1nc(C)cc(C)c1C#N)c2ccc(F)cc2F] | 4040 | 7.5 | – |
| COc1ccccc1C(=O)CSc1nc(C)cc(C)c1C#N [Compound 10, S(c1nc(C)cc(C)c1C#N)CC(=O)c2ccccc2OC] | 9670 | 9.3 | – |
| COc1ccc(C(=O)CSc2nc(C)cc(C)c2C#N)cc1 [Compound 11, S(c1nc(C)cc(C)c1C#N)CC(=O)c2ccc(OC)cc2] | 4300 | 24.6 | – |
| Cc1cc(C)c(C#N)c(OCC(=O)c2ccccc2)n1 [Compound 23, O(c1nc(C)cc(C)c1C#N)CC(=O)c2ccccc2] | 3240 | 31.1 | – |
| Cc1cc(C)c(C(N)=O)c(SCC(=O)c2ccc(F)cc2)n1 [Compound 38, O=C(CSc1nc(C)cc(C)c1C(=O)N)c2ccc(F)cc2] | 892 | 17.5 | – |
